We go through twelve compounds from patent US10506807B2, “Halogen-substituted phenoxyphenylamidines and the use thereof as fungicides” (priority 2015, dated 2019).

One series deals with soy bean plants. As to the kind of experiment: Plant compatibility test using soy bean plants. It counts as in vivo. As to conditions: soy bean plants sprayed, 1000 ppm active compound, evaluated 6 days after application; 0% no damages, 100% totally damaged. Here is the method:
Plant Compatibility Test Using Soy Bean Plants • Solvent: 24.5 parts by weight of acetone • 24.5 parts by weight of dimethylacetamide • Emulsifier: 1 part by weight of alkylaryl polyglycol ether To produce a suitable preparation of active compound, 1 part by weight of active compound is mixed with the stated amounts of solvent and emulsifier, and the concentrate is diluted with water to the desired concentration. Young plants are sprayed with the preparation of active compound at the stated application rate. The plants are then placed in a greenhouse at approximately 21° C. and a relative atmospheric humidity of approximately 80%. The test is evaluated 6 days after application and comprises plant damages like leaf deformation, chlorosis, necrosis, shoot damage or stunting. The results are summarized in table V. 0% means no damages are observed, while 100% means that the plants are totally damaged.

A short description of series [1]: Hydrolysis stability test in homogeneous aqueous solution. It counts as physicochemical. From the text: Stability Towards Hydrolysis in Homogeneous Aqueous Solution—Hydrolysis Stability Test The chemical stability towards hydrolysis of the phenylamidines described in the prior art is good but an improved stability may be an advantage during the preparation and formulation processes in a large scale. The improved stability towards hydrolysis was proven by a hydrolysis stability test as described below: To produce a suitable preparation of active compound for the hydrolysis stability test, a 1000 ppm stock solution (1 mg/mL) of active compound in acetonitrile is prepared. Three aliquots of 100 μL are pipetted into HPLC vials and diluted with 750 μL acetonitrile. In each vial 850 μL of the appropriate buffer solution (pH4, pH7 and pH9, CertiPUR, Fa. Merck) is added. The buffer containing HPLC vials are incubated in a heated sample tray at 50° C. for 24 hours. The amount A of the active compound is analyzed by HPLC (UV-peak areas at 210 nm) at eight points in time t: 0 min, 140 min, 350 min, 560 min, 770 min, 980 min, 1190 min, 1400 min. The half-life time (T1/2) of each active compound is calculated via linear regression by using the following equations (first order degradation assumed): [formula] [formula] In table III the results of the hydrolysis stability test are shown for the compounds (I-01), (I-02), (I-03) and (I-04) at various pH-values. […] 337 known from WO2008/110278. […] This increased stability will be of advantage during the preparation and formulation processes in a large scale compared to known amidines. The data are to be seen merely by way of example and are not limiting for the purposes of the invention.

Series [2] can be described thus: Photolysis stability test. The format is physicochemical. From the text:
Stability Towards Photolysis—Photolysis Stability Test
The stability towards photolysis of the phenylamidines described in the prior art is good but an improved stability towards photolysis may be an advantage as it could offer a longer lasting efficacy when applied to plants by foliar application. The improved stability towards photolysis was proven by a […] as described below: To produce a suitable preparation of active compound for the photolysis stability test, a 1000 ppm stock solution (1 mg/mL) of active compound in acetonitrile is prepared. Aliquots of 25 μL of this stock solution are pipetted in three wells of a Bio-one microtiter plate (MTP) UVStar 96 (Fa. Greiner, Art. No. 655801). The MTP is dried overnight in the dark and then irradiated at 30° C. and 480 W/m^2 with a UV irradiation device SUNTEST XLS+ or SUNTEST CPS (Fa. Atlas). The amount A of the active compound is analyzed by HPLC (UV-peak areas at 210 nm) at five points in time t: 0 h, 2 h, 4 h, 6 h, 24 h by using the following method: 200 μL acetonitrile is added in the respective well of the MTP and the MTP is sealed with a Bio-one sealing foil, viewseal 80/140 mm (Fa. Greiner, Art. No. 676070). The MTPs are sonicated for 3 minutes and analysed by HPLC. The half-life time (T) of each active compound is calculated via linear regression by using the following equations (first order degradation assumed): […]
In table IV the results of the photolysis stability test are shown for the compounds (I-01), (I-02), (I-03) and (I-04). […] This increased chemical stability towards photolysis will be of advantage as it will offer a longer lasting efficacy when applied to plants by foliar application compared to known amidines. The data are to be seen merely by way of example and are not limiting for the purposes of the invention.

A further series relates to Phakopsora pachyrhizi. As to the kind of experiment: In vivo preventive test on Phakopsora (soybeans). As to conditions: 100 ppm of active ingredient, preventive spray on soybeans, evaluated 7 days after inoculation. Here is the method:
Example: In Vivo Preventive Test on Phakopsora Test (Soybeans)
• Solvent: 24.5 parts by weight of acetone • 24.5 parts by weight of dimethylacetamide • Emulsifier: 1 part by weight of alkylaryl polyglycol ether
To produce a suitable preparation of active compound, 1 part by weight of active compound is mixed with the stated amounts of solvent and emulsifier, and the concentrate is diluted with water to the desired concentration.
To test for preventive activity, young plants are sprayed with the preparation of active compound at the stated rate of application. After the spray coating has dried on, the plants are inoculated with an aqueous spore suspension of the causal agent of soybean rust (Phakopsora pachyrhizi) and stay for 24 h without light in an incubation cabinet at approximately 24° C. and a relative atmospheric humidity of 95%.
The plants remain in the incubation cabinet at approximately 24° C. and a relative atmospheric humidity of approximately 80% and a day/night interval of 12 h.
The test is evaluated 7 days after the inoculation. 0% means an efficacy which corresponds to that of the untreated control, while an efficacy of 100% means that no disease is observed.

Series [3] is described as follows: Log P by HPLC on reversed phase columns (EEC directive 79/831 Annex V.A8). The format is physicochemical. As to conditions: LC-UV. Here is the method:
Measurement of Log P values was performed according to EEC directive 79/831 Annex V.A8 by HPLC (High Performance Liquid Chromatography) on reversed phase columns with the following methods: • ^[a] Log P value is determined by measurement of LC-UV, in an acidic range, with 0.1% formic acid in water and acetonitrile as eluent (linear gradient from 10% acetonitrile to 95% acetonitrile). • ^[b] Log P value is determined by measurement of LC-UV, in a neutral range, with 0.001 molar ammonium acetate solution in water and acetonitrile as eluent (linear gradient from 10% acetonitrile to 95% acetonitrile). […] Lambda-max-values were determined using UV-spectra from 200 nm to 400 nm and the peak values of the chromatographic signals.

[4] abbreviates: pH 7, read-out: T1/2 (pH 7) (converted).
The mark [5] stands for this setting: pH 9, read-out: T1/2 (pH 9) (converted).
The mark [6] stands for this setting: acidic range, 0.1% formic acid in water and acetonitrile as eluent, read-out: LogP [a].
The mark [7] stands for this setting: neutral range, 0.001 molar ammonium acetate solution in water and acetonitrile as eluent, read-out: LogP [b].

SMILES strings stand for the structures. Read-outs that look alike come from different tables or passages of the source.

The compound `CCN(C)/C=N/c1cc(C)c(Oc2ccccc2F)cc1C` [Compound no.337] returned a Necrosis in % in the series with soy bean plants of 90%.

With `CCN(C)/C=N/c1cc(C)c(Oc2ccccc2)cc1C` [Compound no. 1], the Necrosis in % with soy bean plants came to 90%.

In the case of `CCN(C)/C=N/c1cc(C)c(Oc2ccccc2F)cc1Cl` [Example I-01, N′-[2-chloro-4-(2-fluorophenoxy)-5-methylphenyl]-N-ethyl-N-methylimidoformamide], the half-life at 58.8 µg/mL is 52 h in series [1] (setting [4]) and 47 h in series [1] (setting [5]). The compound further yielded a half-life at 25 µg/well in series [2] of more than 200 h. This compound also had a Necrosis in % in the series on soy bean plants of 20%. In the series with Phakopsora pachyrhizi, the efficacy entry was “at least 70%”. In series [3] (setting [6]), the chromatographic logP was 1.66.

In the case of `CCN(C)C=Nc1cc(C)c(Oc2ccccc2F)cc1C(F)F` [Example I-02, N′-[2-(difluoromethyl)-4-(2-fluorophenoxy)-5-methylphenyl]-N-ethyl-N-methylimidoformamide], the half-life at 58.8 µg/mL in series [1] (setting [4]) is 160 h; in series [1] (setting [5]), 140 h. In addition, in series [2], the half-life at 25 µg/well is 185 h. Further, the chromatographic logP in series [3] (setting [6]) is 1.76.

As to `CCN(C)C=Nc1cc(C)c(Oc2ccccc2F)cc1Br` [Example I-03, N′-[2-bromo-4-(2-fluorophenoxy)-5-methylphenyl]-N-ethyl-N-methylimidoformamide], the half-life at 58.8 µg/mL was 68 h in series [1] (setting [4]) and 51 h in series [1] (setting [5]). For the same compound, the half-life at 25 µg/well in series [2] is 178 h. In addition, the chromatographic logP in series [3] (setting [6]) stood at 1.66; in series [3] (setting [7]), 4.53.

For the compound `CCN(C)C=Nc1cc(C)c(Oc2ccccc2Cl)cc1Br` [Example I-04, N′-[2-bromo-4-(2-chlorophenoxy)-5-methylphenyl]-N-ethyl-N-methylimidoformamide], the half-life at 58.8 µg/mL in series [1] (setting [4]) was 64 h; in series [1] (setting [5]), 58 h. The compound further showed a half-life at 25 µg/well in series [2] of more than 200 h. Also, the chromatographic logP in series [3] (setting [6]) was found to be 1.84; in series [3] (setting [7]), 4.97.

As to `CCN(C)C=Nc1cc(C)c(Oc2ccccc2Cl)cc1Cl` [Example I-05, N′-[2-chloro-4-(2-chlorophenoxy)-5-methylphenyl]-N-ethyl-N-methylimidoformamide], the figures for the half-life at 58.8 µg/mL in series [1] (setting [4]) and in series [1] (setting [5]) were 51 h and 47 h, respectively. The chromatographic logP in series [3] (setting [6]) stood at 1.58.

With `CCN(C)C=Nc1cc(C)c(Oc2ccccc2I)cc1Cl` [Example I-06, N′-[2-chloro-4-(2-iodophenoxy)-5-methylphenyl]-N-ethyl-N-methylimidoformamide], the chromatographic logP in series [3] (setting [6]) was 1.78.

Consider `CCN(C)C=Nc1cc(C)c(Oc2ccccc2Br)cc1Br` [Example I-07, N′-[2-bromo-4-(2-bromophenoxy)-5-methylphenyl]-N-ethyl-N-methylimidoformamide], for which the figures for the half-life at 58.8 µg/mL in series [1] (setting [4]) and in series [1] (setting [5]) were 63 h and 57 h, respectively. Further, the chromatographic logP in series [3] (setting [6]) was determined as 1.81.

Regarding `Cc1cc([N+](=O)[O-])c(C(F)F)cc1Oc1ccccc1F` [VI-02, 1-(Difluoromethyl)-5-(2-fluorophenoxy)-4-methyl-2-nitrobenzene], the chromatographic logP in series [3] (setting [6]) is 3.97.

For the compound `Cc1cc([N+](=O)[O-])c(Br)cc1Oc1ccccc1Cl` [VI-04, 4-Bromo-2-(2-chlorophenoxy)-1-methyl-5-nitrobenzene], in series [3] (setting [6]), the chromatographic logP was 4.68.

Consider `Cc1cc(N)c(Br)cc1Oc1ccccc1Cl` [VIII-04, 2-Bromo-4-(2-chlorophenoxy)-5-methylaniline], for which the chromatographic logP in series [3] (setting [7]) amounted to 3.53.
